Structures are written as SMILES. Some results are limits rather than exact numbers.

Common to all, as to format: biochemical
One experiment deals with T1, human HDAC2 (Homo sapiens, UniProt Q92769).
T1 construct: Full length human HDAC2-FLAG was expressed in baculovirus infected Sf9 cells; host or cells: baculovirus infected Sf9 cells
The experiment can be described thus: Human HDAC enzyme inhibitor Fluor-de-Lys assay, HDAC2. Particulars: 1.5 nM enzyme, 40 μM substrate BML-KI104, 3 h pre-incubation, 60 min reaction; read-out: HDAC2_IC50. The source says: (§1) Recombinant human HDAC8 (catalog number BML-SE145-0100) and HDAC10 (catalog number BML-SE559-0050) enzymes, HDAC substrates BML-KI104 and BML-KI178, and HDAC developer solutions BML-KI105 and BML-KI176 were purchased from Enzo Life Sciences (Farmingdale, NY). Recombinant human HDAC5 and HDAC11 were purchased from BPS Bioscience (San Diego, CA)(catalog numbers 50045 and 50021). Substrate Boc-Lys(TFA)-AMC was obtained from Bachem (Bupendorf, Switzerland) (catalog number 1-1985). HDAC inhibitor suberoylanilide hydroxamic acid (SAHA) was obtained from Indofine (Hillsborough Township, NJ) and trichostatin A (TSA) was obtained from Sigma-Aldrich (St. Louis, MO). […] HEPES pH 8.0 was obtained from Boston BioProducts (Ashland, MA), Tween-20 from Fisher Scientific (Hampton, NH)(catalog number BP337), TCEP from Calbiochem and 7.5% bovine serum albumin (BSA) from Life Technologies (Carlsbad, CA) (catalog number 15260037). 384-well, black assay plates were obtained from Corning (Corning, NY) (catalog number 3575).
(§2) Recombinant human HDAC1, HDAC2, and HDAC3/SMRT heterodimer were prepared by Merck Research Laboratories. […] The eluted protein was then passed over an anti-HDAC1 immunoaffinity column to remove any complexes containing HDAC1. […]
(§3) The histone deacetylase activities of HDAC1, HDAC2, HDAC3, HDAC6, and HDAC8 were measured in modified Fluor-de-Lys assays in 384-well format. In this assay, HDAC enzymes are initially incubated with an ε-acetyl (or -trifluoroacetyl)-L-lysine-containing substrate with a C-terminal amide having aminomethylcoumarin as the amine component. HDACs cleave the ε-acetyl group, rendering the resulting product susceptible to AMC cleavage by trypsin. The released AMC is then detected by its fluorescence.
(§4) The HDAC 1, 2 assays employed buffer A, which contained 20 mM HEPES, pH 8.0, 1 mM MgCl2, 137 mM NaCl, 2.7 mM KCl, 0.05% BSA. The HDAC3/SMRT assay employed buffer B, consisting of 20 mM HEPES, pH 8.0, 1 mM MgCl2, 50 mM NaCl, 2.7 mM KCl, 0.05% BSA, 0.005% Tween 20, and 10 μM IP4. The HDAC6 assay employed buffer C, consisting of 20 mM HEPES, pH 8.0, 1 mM MgCl2, 137 mM NaCl, 2.7 mM KCl, 0.5 mM TCEP (Calbiochem) and 0.05% BSA. The HDAC8 assay employed buffer D, consisting of 20 mM HEPES, pH 8.0, 1 mM MgCl2, 100 mM NaCl, 20 mM KCl, 0.1% n-octyl-β-D-glucoside (Anatrace, Maumee, OH) and 0.05% BSA. All steps were performed at room temperature (23° C.). The assay was performed by pre-incubating serial dilutions of test compounds with the target HDAC prior to initiation with substrate. Each compound was titrated in a 10-point dose response, using a 1:3 fold dilution scheme, with 0.15 ul of solution added by ECHO555 to the plate, followed by the addition of 20 μl of the appropriate HDAC isoform diluted in appropriate assay buffer. […] Final conditions used for each assay were: 1. HDAC 1, 0.3 nM total enzyme, 20 μM substrate BML-K1104; 2. HDAC 2, 1.5 nM total enzyme, 40 μM substrate BML-K1104; 3. HDAC 3/SMRT, 0.3 nM total enzyme, 20 μM substrate BML-K1104; 4. HDAC 6, 1.3 nM total enzyme, 2.5 μM substrate BML-K1104; 5. HDAC 8, 1.3 nM total enzyme, 200 μM substrate BML-K1178; the final high dose of test compound was 30 μM. […] The reactions were stopped and developed by addition of 30 ul of HDAC developer solution containing a saturating level of HDAC inhibitor as follows: 1.

The target in experiment [1] is T2, human HDAC3/SMRT heterodimer (Homo sapiens, UniProt O15379).
T2 construct: Full length human HDAC3-FLAG was expressed in HEK-293F cells along with SMRT; host or cells: HEK-293F cells
The experiment can be described thus: Human HDAC enzyme inhibitor Fluor-de-Lys assay, HDAC3/SMRT. The following applies: HDAC3/SMRT 0.3 nM enzyme, 20 μM substrate BML-KI104, 10 μM IP4, 3 h pre-incubation, 60 min reaction; read-out: HDAC3_IC50.
Description: as §1, §2, §3, §4

For another experiment, the target named is T3, HDAC6 (Homo sapiens, UniProt Q9UBN7).
T3 sequence (Q9UBN7 1-1215): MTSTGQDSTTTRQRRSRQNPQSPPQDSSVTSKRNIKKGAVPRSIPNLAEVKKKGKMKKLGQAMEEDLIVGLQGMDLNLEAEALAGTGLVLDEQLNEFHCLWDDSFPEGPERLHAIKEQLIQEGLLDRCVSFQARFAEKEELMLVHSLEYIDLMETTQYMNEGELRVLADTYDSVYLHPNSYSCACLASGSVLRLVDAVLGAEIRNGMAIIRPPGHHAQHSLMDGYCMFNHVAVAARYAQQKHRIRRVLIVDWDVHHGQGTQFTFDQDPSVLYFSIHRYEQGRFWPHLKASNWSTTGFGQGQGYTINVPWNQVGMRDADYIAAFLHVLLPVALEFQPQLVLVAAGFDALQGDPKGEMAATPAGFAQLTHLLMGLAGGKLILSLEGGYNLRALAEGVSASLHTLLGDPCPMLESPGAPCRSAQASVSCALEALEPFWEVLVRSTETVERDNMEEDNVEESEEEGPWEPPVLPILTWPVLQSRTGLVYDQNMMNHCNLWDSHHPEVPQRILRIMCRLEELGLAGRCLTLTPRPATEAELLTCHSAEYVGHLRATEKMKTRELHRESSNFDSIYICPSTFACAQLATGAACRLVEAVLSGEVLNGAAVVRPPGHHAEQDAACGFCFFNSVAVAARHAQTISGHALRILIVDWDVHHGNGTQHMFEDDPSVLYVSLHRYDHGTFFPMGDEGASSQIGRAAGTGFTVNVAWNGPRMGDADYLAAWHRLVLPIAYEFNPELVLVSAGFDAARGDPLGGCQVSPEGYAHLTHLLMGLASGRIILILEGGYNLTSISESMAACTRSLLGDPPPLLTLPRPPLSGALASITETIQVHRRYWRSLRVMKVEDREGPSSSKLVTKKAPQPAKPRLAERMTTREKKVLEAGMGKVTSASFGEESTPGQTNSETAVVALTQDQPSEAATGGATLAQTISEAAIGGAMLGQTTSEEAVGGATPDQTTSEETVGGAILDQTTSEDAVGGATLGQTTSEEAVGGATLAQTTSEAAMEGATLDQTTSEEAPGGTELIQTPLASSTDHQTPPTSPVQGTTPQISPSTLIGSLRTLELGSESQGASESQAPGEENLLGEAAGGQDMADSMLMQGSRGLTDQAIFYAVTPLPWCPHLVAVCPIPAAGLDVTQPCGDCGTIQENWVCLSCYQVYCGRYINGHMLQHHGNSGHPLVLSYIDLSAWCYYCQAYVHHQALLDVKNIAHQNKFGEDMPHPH
Put plainly: Human HDAC enzyme inhibitor Fluor-de-Lys assay, HDAC6. Particulars: 1.3 nM enzyme, 2.5 μM substrate BML-KI104, 3 h pre-incubation, 60 min reaction; read-out: HDAC6_IC50.
Description: as §1, §3
(§5) The HDAC 1, 2 assays employed buffer A, which contained 20 mM HEPES, pH 8.0, 1 mM MgCl2, 137 mM NaCl, 2.7 mM KCl, 0.05% BSA. The HDAC3/SMRT assay employed buffer B, consisting of 20 mM HEPES, pH 8.0, 1 mM MgCl2, 50 mM NaCl, 2.7 mM KCl, 0.05% BSA, 0.005% Tween 20, and 10 μM IP4. The HDAC6 assay employed buffer C, consisting of 20 mM HEPES, pH 8.0, 1 mM MgCl2, 137 mM NaCl, 2.7 mM KCl, 0.5 mM TCEP (Calbiochem) and 0.05% BSA. The HDAC8 assay employed buffer D, consisting of 20 mM HEPES, pH 8.0, 1 mM MgCl2, 100 mM NaCl, 20 mM KCl, 0.1% n-octyl-β-D-glucoside (Anatrace, Maumee, OH) and 0.05% BSA. All steps were performed at room temperature (23° C.). The assay was performed by pre-incubating serial dilutions of test compounds with the target HDAC prior to initiation with substrate. Each compound was titrated in a 10-point dose response, using a 1:3 fold dilution scheme, with 0.15 ul of solution added by ECHO555 to the plate, followed by the addition of 20 μl of the appropriate HDAC isoform diluted in appropriate assay buffer. […] Final conditions used for each assay were: 1. HDAC 1, 0.3 nM total enzyme, 20 μM substrate BML-K1104; 2. HDAC 2, 1.5 nM total enzyme, 40 μM substrate BML-K1104; 3. HDAC 3/SMRT, 0.3 nM total enzyme, 20 μM substrate BML-K1104; 4. HDAC 6, 1.3 nM total enzyme, 2.5 μM substrate BML-K1104; 5. HDAC 8, 1.3 nM total enzyme, 200 μM substrate BML-K1178; the final high dose of test compound was 30 μM. For potent compounds, 900 nM was used as the final high dose. The reactions were stopped and developed by addition of 30 ul of HDAC developer solution containing a saturating level of HDAC inhibitor as follows: 1.

For the next experiment, the target named is T4, human HDAC8 (Homo sapiens, UniProt Q9BY41).
T4 construct: purchased Enzo Life Sciences BML-SE145-0100
T4 sequence (Q9BY41 1-377): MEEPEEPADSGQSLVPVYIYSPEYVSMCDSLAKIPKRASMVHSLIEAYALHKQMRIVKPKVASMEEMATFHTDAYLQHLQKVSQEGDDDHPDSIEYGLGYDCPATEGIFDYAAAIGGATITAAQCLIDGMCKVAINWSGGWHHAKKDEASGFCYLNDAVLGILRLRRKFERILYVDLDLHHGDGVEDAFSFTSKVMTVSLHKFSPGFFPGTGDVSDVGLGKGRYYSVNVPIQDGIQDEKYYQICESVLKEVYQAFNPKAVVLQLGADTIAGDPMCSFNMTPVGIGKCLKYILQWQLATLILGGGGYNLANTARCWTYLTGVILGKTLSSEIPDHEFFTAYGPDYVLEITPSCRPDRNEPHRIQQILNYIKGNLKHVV
Put plainly: Human HDAC enzyme inhibitor Fluor-de-Lys assay, HDAC8. The following applies: 1.3 nM enzyme, 200 μM substrate BML-KI178, 3 h pre-incubation, 60 min reaction; read-out: HDAC8_IC50.
Description: as §1, §3, §5

T2 sequence (O15379 whole entry): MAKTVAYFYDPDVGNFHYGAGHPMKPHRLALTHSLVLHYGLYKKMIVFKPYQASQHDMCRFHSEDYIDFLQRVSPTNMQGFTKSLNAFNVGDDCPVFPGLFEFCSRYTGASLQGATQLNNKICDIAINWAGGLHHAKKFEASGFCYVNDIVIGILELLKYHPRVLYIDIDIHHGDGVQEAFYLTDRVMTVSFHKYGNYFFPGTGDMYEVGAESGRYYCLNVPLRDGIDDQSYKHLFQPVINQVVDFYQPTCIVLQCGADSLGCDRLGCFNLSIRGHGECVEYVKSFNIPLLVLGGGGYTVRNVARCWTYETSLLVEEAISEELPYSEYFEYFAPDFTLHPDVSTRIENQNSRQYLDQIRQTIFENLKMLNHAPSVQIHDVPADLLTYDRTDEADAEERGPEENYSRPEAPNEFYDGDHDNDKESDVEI
T2 sequence (Q9Y618 1-899 partner limits assumed): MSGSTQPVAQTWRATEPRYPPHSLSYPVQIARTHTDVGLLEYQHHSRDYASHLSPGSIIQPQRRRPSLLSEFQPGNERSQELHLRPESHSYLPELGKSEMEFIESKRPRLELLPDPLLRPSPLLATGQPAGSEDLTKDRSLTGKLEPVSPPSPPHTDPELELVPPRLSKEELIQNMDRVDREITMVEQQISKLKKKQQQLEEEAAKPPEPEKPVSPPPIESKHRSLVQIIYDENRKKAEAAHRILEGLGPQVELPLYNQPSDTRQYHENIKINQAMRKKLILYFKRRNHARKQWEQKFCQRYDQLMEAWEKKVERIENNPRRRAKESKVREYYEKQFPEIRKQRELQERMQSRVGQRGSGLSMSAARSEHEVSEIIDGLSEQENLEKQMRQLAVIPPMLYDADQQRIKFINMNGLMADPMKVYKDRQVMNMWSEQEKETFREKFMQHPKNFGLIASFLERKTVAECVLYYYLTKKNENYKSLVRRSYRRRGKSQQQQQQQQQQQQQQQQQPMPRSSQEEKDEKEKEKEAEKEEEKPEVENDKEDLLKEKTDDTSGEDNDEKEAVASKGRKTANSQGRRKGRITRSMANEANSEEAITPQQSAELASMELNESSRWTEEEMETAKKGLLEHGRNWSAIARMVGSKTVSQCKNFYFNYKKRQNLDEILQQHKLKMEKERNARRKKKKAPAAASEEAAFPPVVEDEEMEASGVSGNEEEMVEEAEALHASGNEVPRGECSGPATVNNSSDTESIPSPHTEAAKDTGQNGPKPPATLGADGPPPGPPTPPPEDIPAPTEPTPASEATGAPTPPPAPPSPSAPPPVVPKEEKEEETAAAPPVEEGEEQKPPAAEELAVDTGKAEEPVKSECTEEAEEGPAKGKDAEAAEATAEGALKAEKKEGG
T1 sequence (Q92769 whole entry): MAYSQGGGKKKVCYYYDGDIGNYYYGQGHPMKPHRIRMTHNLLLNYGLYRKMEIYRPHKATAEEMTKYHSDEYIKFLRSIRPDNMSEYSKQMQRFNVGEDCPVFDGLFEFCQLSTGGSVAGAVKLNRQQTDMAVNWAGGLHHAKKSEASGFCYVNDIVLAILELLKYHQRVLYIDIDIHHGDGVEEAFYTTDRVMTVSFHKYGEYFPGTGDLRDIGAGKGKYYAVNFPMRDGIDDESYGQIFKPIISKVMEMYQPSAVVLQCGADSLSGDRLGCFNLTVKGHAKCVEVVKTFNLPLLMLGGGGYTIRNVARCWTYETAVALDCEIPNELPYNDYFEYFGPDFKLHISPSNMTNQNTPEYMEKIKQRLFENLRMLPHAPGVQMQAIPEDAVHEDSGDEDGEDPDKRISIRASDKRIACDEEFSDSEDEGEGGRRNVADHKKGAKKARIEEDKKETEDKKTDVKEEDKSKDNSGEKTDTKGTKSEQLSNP

As for `CCC(=O)CCCOC[C@H](NC(=O)C1CN(C)C1)c1ncc(-c2cc3ccccc3nc2OC)[nH]1` [Compound 3, (R)—N-(1-(5-(2-methoxyquinolin-3-yl)-1H-imidazol-2-yl)-2-((4-oxohexyl)oxy)ethyl)-1-methylazetidine-3-carboxamide], the values for the IC50 (on human HDAC2; in experiment [1]) were 4.35 µM and 0.298 µM, respectively.

As to `CCC(=O)CCCOC[C@H](NC(=O)[C@H]1CC12CCN(C)CC2)c1ncc(-c2cc3ccccc3nc2OC)[nH]1` [Compound 4, (S)—N—((R)-1-(5-(2-methoxyquinolin-3-yl)-1H-imidazol-2-yl)-2-((4-oxohexyl)oxy)ethyl)-6-methyl-6-azaspiro[2.5]octane-1-carboxamide], the IC50 at HDAC6 was 23.3 µM; at human HDAC8 it was over 45 µM.

For the origin of these results see US12365674B2, “Inhibitors of histone deacetylase useful for the treatment or prevention of HIV infection” (Merck Sharp & Dohme LLC, priority 2019, dated 2025).
